# Tests used:
# MCF7 = test: Antiproliferative activity against human MCF7 cells after 48 hrs by WST8 assay; type: functional; conditions: for GI50: MCF7, 48 h
# Hs-578T = test: Antiproliferative activity against human Hs 578T cells after 48 hrs by WST8 assay; type: functional
GI50 (MCF7) [µM],Structure (SMILES),GI50 (Hs-578T) [µM],Activity (MCF7),Activity (Hs-578T)
> 100,CCCCCC[C@@H](O)c1c(O)ccc(O)c1CO,> 100,–,–
61.5,CCCCC/C=C/c1c(O)ccc(O)c1CO,59.7,Dose-dependent effect,Dose-dependent effect
> 100,CCCCCC[C@H](O)c1c(O)ccc(O)c1CO,> 100,–,–
